Source: patent US12403144B2, “HECT E3 ligase inhibitors and uses thereof” (IFOM FONDAZIONE ISTITUTO FIRC DI ONCOLOGIA MOLECOLARE, priority 2019, dated 2025)
Structures can show the parent of a compound that is named as a salt.

How the values were obtained:
[1] = target: T1, His-MPB tagged HECT of HECW2 (E3 ligase) (Homo sapiens, UniProt Q9P2P5); experiment: In vitro ubiquitination assay TR-FRET based, HECW2; format: biochemical; settings: read-out: percentage of inhibition (HECW2)
T1 construct: using His-MPB tagged HECT of HECW2 (E3 ligase) instead of untagged HECT of NEDD4 wild-type (WT) (E3 ligase); made in house
T1 sequence (Q9P2P5 1237-1572 limits assumed): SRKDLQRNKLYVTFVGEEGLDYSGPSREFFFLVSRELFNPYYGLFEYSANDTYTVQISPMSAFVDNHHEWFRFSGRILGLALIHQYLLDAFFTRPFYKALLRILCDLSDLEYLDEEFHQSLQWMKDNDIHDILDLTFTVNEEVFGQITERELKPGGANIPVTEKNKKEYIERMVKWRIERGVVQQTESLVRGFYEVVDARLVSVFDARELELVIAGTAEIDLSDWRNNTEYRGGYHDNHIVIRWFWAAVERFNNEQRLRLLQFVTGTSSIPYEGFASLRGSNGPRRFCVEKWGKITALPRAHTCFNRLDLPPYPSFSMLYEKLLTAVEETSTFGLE
Description: To determine the selectivity of identified NEDD4 inhibitors, it was quantitatively measured the self-ubiquitination process of the E3 HECT ligase belonging to NEDD4 family such as NEDD4L, HECW2 and ITCH in presence or not of some compounds such as 5, 9, 12, 29, 42, 45, 56, 58, 61, 77, 78, 85 and 94 employing TR-FRET based assays.
The assay was performed as described above in the paragraph titled “In vitro ubiquitination assay TR-FRET based” under the heading “2.1. NEDD4 UBIQUITINATION ASSAYS” using His-MPB tagged HECT of HECW2 (E3 ligase) instead of untagged HECT of NEDD4 wild-type (WT) (E3 ligase). In this case, final E1, E2 and E3 concentrations in the assay buffer (Tris-HCl pH 7.6 25 mM, NaCl 100 mM, MgCl2 5 mM and Tween 0.01%) were 30, 350 and 62.5 nanomolars, respectively. His-MPB tagged HECT of HECW2 (E3 ligase) enzyme was produced and purified as reported in E. Maspero et al. Methods Mol Biol. 1449:153-60 (2016) and in E. Maspero et al. EMBO Reports 12:342-349(2011).

DU145 cells = experiment: CellTiter-Glo Luminescent Cell Viability Assay, DU145; format: cell-based; settings: Homo sapiens, DU-145; 48 hours incubation; mean of at least two determinations; read-out: DU145 IC50 μM (antiproliferative activity)
Excerpt: (§1) CellTiter-Glo® Luminescent Cell Viability Assay (Promega, Catalog number: G7571) is a homogeneous method of determining the number of viable cells in culture based on quantitation of the present ATP, which indicates the presence of metabolically active cells. The homogeneous assay procedure involves addition of a single reagent (CellTiter-Glo® Reagent) directly to the cells, which leads to cell lysis and generation of a luminescent signal proportional to the amount of the ATP and the number of cells present in culture. The assay relies on the properties of a proprietary thermostable luciferase (Ultra-Glo® recombinant luciferase), which generates a luminescent signal.
(§2) DU145 cells (obtained from CLS Cell Lines Service GmbH item 300168) were grown in DMEM (Sigma Aldrich catalog number D6171-500 ml) supplemented with 10% Fetal Bovine Serum (Euroclone, catalog number. ECS0180L), 2 mM L-Glutamine (Euroclone catalog number LOBE17605F) and 100 U/ml penicillin-[…] streptomycin (EuroClone, ECB3001L). LNCaP cells (obtained from CLS Cell Lines Service GmbH item 300265) were grown in RPMI1640 (Lonza catalog number BE12-167F) supplemented with 10% Fetal Bovine Serum (Euroclone, catalog number. ECS0180L), 2 mM L-Glutamine (Euroclone catalog number LOBE17605F) and 100 U/ml penicillin-[…] streptomycin (EuroClone, ECB3001 L).
(§3) To determine the antiproliferative activity of the compounds, 3000 DU145 cells and 5000 LNCap cells were seeded in 96 multiwell plate (Sigma catalog number CLS9102) per well. 24 hours after seeding, the cells were incubated for 48 hours with different concentrations of the inhibitors (from 50 to 0 μM with a 3-fold dilution) dissolved in DMSO. After 48 hours, a volume of CellTiter-Glo® Reagent equal to the volume of cell culture medium was added. The content was mixed for 2 min to induce cell lysis. The luminescence was measured and recorded with Tecan Infinite 200 multimode plate reader after further 10 min at room temperature in order to obtain a stable luminescent signal.
(§4) The IC50 was calculated using GraphPad Software from the recorded luminescent signal.

LNCaP cells = experiment: CellTiter-Glo Luminescent Cell Viability Assay, LNCaP; format: cell-based; settings: Homo sapiens, 48 hours incubation, mean of at least two determinations, read-out: LNCaP IC50 μM (antiproliferative activity)
Excerpt: as §1, §2, §3, §4

## CCOC(=O)/C=C/CCNCCCN1c2ccccc2CCc2ccc(Cl)cc21 [Compound 5, Ethyl (E)-5-[3-(3-chloro-10,11-dihydro-5H-dibenzo[b,f]azepin-5-yl)propylamino]pent-2-enoate maleate]
[1]
  inhibition at 11 µM: < 15%
DU145 cells
  IC50: 7.68 µM
LNCaP cells
  IC50: 10.9 µM

## CON(C)C(=O)/C=C/CN(C)CCCCN1c2ccccc2CCc2ccc(Cl)cc21 [Compound 9, (E)-4-[4-(3-Chloro-10,11-dihydro-5H-dibenzo[b,f]azepin-5-yl)butyl-methyl-amino]-N-methoxy-N-methyl-but-2-enamide]
[1]
  inhibition at 11 µM: < 5%

## CCOC(=O)/C=C/CNCCCCN1c2ccccc2CCc2ccc(Cl)cc21.O=C(O)/C=C\C(=O)O [Compound 12, Ethyl (E)-4-[4-(3-chloro-10,11-dihydro-5H-dibenzo[b,f]azepin-5-yl)butylamino]but-2-enoate maleate]
[1]
  inhibition at 11 µM: < 5%
DU145 cells
  IC50: 6.81 µM
LNCaP cells
  IC50: 6.67 µM

## CCOC(=O)/C=C/CNCCCCN1c2ccccc2C(=O)N(C)c2ccc(Cl)cc21 [Compound 29, Ethyl (E)-4-{[4-(7-chloro-10-methyl-11-oxo-10,11-dihydro-5H-dibenzo[b,e][1,4]diazepin-5-yl)butyl]amino}but-2-enoate maleate]
[1]
  inhibition at 11 µM: < 15%

## CCOC(=O)/C=C/CNCCCCN1c2cc(Cl)ccc2C(=O)N(C)c2ccccc21 [Compound 42, Ethyl (E)-4-{[4-(3-chloro-10-methyl-11-oxo-10,11-dihydro-5H-dibenzo[b,e][1,4]diazepin-5-yl)butyl]amino}but-2-enoate maleate]
[1]
  inhibition at 11 µM: < 15%
DU145 cells
  IC50: 9.18 µM
LNCaP cells
  IC50: 6.49 µM

## CCOC(=O)/C=C/CNCCCCN1c2ccccc2C(=O)N(Cc2ccccc2)c2ccc(Cl)cc21 [Compound 45, Ethyl (E)-4-{[4-(10-benzyl-7-chloro-11-oxo-10,11-dihydro-5H-dibenzo[b,e][1,4]diazepin-5-yl)butyl]amino}but-2-enoate maleate]
[1]
  inhibition at 11 µM: < 20%
DU145 cells
  IC50: 4.97 µM
LNCaP cells
  IC50: 5.69 µM

## CCOC(=O)/C=C/CNCCCCN1c2cc(Cl)ccc2C(=O)N(Cc2ccccc2)c2ccccc21 [Compound 56, Ethyl (E)-4-((4-(10-benzyl-3-chloro-11-oxo-10,11-dihydro-5H-dibenzo[b,e][1,4]diazepin-5-yl)butyl)amino)but-2-enoate maleate]
[1]
  inhibition at 11 µM: < 15%

## COC(=O)/C=C/CN(C)CCCCN1c2cc(Cl)ccc2C(=O)N(Cc2ccccc2)c2ccccc21 [Compound 58, Methyl (E)-4-{[4-(10-benzyl-3-chloro-11-oxo-10,11-dihydro-5H-dibenzo[b,e][1,4]diazepin-5-yl)butyl](methyl)amino}but-2-enoate maleate]
[1]
  inhibition at 11 µM: < 5%

## CN(C/C=C/C#N)CCCCN1c2cc(Cl)ccc2C(=O)N(Cc2ccccc2)c2ccccc21 [Compound 61, (E)-4-{[4-(10-benzyl-3-chloro-11-oxo-10,11-dihydro-5H-dibenzo[b,e][1,4]diazepin-5-yl)butyl](methyl)amino}but-2-enenitrile maleate]
[1]
  inhibition at 11 µM: < 5%

## C#CCON(C)C(=O)/C=C/CN(C)CCCCN1c2ccccc2CCc2ccc(Cl)cc21 [Compound 77, (E)-4-[4-(3-Chloro-10,11-dihydro-5H-dibenzo[b,f]azepin-5-yl)butyl-methyl-amino]-N-methyl-N-prop-2-ynoxy-but-2-enamide maleate]
[1]
  inhibition at 11 µM: < 15%

## CONC(=O)/C=C/CNCCCCN1c2ccccc2CCc2ccc(Cl)cc21 [Compound 78, (E)-4-[4-(3-Chloro-10,11-dihydro-5H-dibenzo[b,f]azepin-5-yl)butylamino]-N-methoxy-but-2-enamide maleate]
[1]
  inhibition at 11 µM: < 5%

## CONC(=O)/C=C/CN(C)CCCCN1c2ccccc2CCc2ccc(Cl)cc21 [Compound 85, (E)-4-[4-(3-Chloro-10,11-dihydro-5H-dibenzo[b,f]azepin-5-yl)butyl-methyl-amino]-N-methoxy-but-2-enamide maleate]
[1]
  inhibition at 11 µM: < 5%
DU145 cells
  IC50: 11.3 µM
LNCaP cells
  IC50: 16.3 µM

## CN(C/C=C/C(=O)OCCOCCOCCOCCNC(=O)CCCC[C@@H]1SC[C@@H]2NC(=O)N[C@@H]21)CCCCN1c2ccccc2CCc2ccc(Cl)cc21 [Compound 94, 2-[2-(2-{2-[5-((3aS,4S,6aR)-2-Oxo-hexahydro-thieno[3,4-d]imidazol-4-yl)-pentanoylamino]-ethoxy}-ethoxy)-ethoxy]-ethyl (E)-4-{[4-(3-chloro-10,11-dihydro-dibenzo[b,f]azepin-5-yl)-butyl]-methyl-amino}but-2-enoate]
[1]
  inhibition at 11 µM: < 15%
